Here are results for 15 compounds from patent publication US20250091992A1, “NOVEL COMPOUNDS AND USES THEREOF” (KANNA HEALTH LIMITED, priority 2021, published 2025).

The target of one assay is T1, hSERT (Homo sapiens, UniProt P31645).
T1 construct: expressed in transfected cells
Description: SERT assay (Compounds of Formula II), transporter uptake assay kit. The format is cell-based. The method, then:
SERT assays were performed using a standard transporter uptake assay kit, (Molecular devices, (R8174)). In short, test compounds (10 nM-30 μM), reference compound or vehicle control were added to cells stably expressing hSERT (20,000/well) in assay buffer containing HBSS (20 mM) and BSA (0.1% (w/v)) for 30 mins at 30° C. Assay plates were incubated in the presence of dye for a further 60 mins at 37° C. and intracellular fluorescence intensity was determined.

A further assay concerns the target T2, PDE-4A1A (Homo sapiens, UniProt P27815).
T2 construct: purchased Sigma SRP0262
Briefly: PDE-41A assay (Compounds of Formula II), AMP-Glo. The format is biochemical. The method, then:
PDE-41A assays were performed using the AMP-Glo™ Assay Kit, (Promega-V5012) human recombinant […] (Sigma, SRP0262) according to recommended protocols. […]

For assay [1], the target named is human serotonin transporter (Homo sapiens, UniProt P31645).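 Note: Read-out: uptake of tritium-labelled serotonin, measured by scintillation counting.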
Description: Following incubation, [^3H] serotonin uptake was quantified by a standard scintillation counting method.

Usually inhibition stands for the relative decrease from the control value, in per cent. As a reminder, the IC50 is the concentration needed to halve the response being measured.

T1 sequence (P31645 whole entry): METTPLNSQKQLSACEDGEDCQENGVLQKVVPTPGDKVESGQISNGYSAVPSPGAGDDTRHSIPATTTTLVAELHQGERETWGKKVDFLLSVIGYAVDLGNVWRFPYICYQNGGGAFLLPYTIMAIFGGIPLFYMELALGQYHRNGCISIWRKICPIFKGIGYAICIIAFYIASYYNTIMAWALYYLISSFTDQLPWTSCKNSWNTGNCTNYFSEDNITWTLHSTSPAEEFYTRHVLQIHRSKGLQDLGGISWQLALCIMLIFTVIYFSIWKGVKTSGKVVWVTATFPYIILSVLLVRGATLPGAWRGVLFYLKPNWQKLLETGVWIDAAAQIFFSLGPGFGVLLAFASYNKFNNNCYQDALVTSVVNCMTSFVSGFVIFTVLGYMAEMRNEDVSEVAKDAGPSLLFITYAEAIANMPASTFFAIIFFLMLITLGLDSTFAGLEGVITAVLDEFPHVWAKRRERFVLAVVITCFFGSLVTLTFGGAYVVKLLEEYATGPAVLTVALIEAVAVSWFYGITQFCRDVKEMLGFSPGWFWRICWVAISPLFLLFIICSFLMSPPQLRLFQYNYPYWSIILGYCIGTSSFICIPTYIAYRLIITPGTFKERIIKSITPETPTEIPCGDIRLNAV
T2 sequence (P27815 1-647 isoform P27815-4): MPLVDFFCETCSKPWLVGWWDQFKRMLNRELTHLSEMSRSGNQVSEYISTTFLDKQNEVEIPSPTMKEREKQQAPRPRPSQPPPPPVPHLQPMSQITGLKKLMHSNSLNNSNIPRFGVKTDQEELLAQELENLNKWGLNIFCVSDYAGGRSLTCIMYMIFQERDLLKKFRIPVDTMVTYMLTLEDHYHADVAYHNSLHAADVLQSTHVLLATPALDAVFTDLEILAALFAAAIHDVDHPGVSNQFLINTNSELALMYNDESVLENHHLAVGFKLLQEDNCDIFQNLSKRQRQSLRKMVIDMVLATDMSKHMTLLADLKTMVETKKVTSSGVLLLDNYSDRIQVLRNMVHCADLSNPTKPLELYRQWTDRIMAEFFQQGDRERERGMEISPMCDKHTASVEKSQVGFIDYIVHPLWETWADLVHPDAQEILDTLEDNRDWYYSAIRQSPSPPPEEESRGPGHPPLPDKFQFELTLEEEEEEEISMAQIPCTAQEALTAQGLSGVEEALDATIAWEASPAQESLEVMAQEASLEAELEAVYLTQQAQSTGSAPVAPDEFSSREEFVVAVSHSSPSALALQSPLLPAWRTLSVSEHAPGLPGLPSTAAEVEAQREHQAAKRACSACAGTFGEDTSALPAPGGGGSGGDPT
Sequence of human serotonin transporter (P31645 whole entry): as the sequence (P31645 whole entry) above

As to `COc1ccc([C@@]23C=C[C@@H](OC(=O)CN)C[C@@H]2N(C)CC3)cc1OC` [Compound 56], at hSERT, the inhibition at 1 µM stood at 86% and the inhibition at 3 µM was 99%. For the same compound, at PDE-4A1A, the inhibition at 30 µM worked out at 74% and the inhibition at 100 µM was found to be 102%.

`COc1ccc([C@@]23CCC(=O)C[C@@H]2N(C)CC3)cc1OCC(F)F` [Compound 7] came in with an IC50 in assay [1] of 20 nM. This lies in the double-digit nanomolar range.

Consider `COc1ccc([C@@]23C=C[C@@H](OC(=O)C(C)C)C[C@@H]2N(C)CC3)cc1OC` [Compound 59], for which, on hSERT, the inhibition at 1 µM was 99% and the inhibition at 3 µM worked out at 97%. In addition, at PDE-4A1A, the inhibition at 30 µM was found to be 100% and the inhibition at 100 µM came out at 100%.

With `COc1ccc([C@@]23CC[C@@H](OC(=O)CCCC(=O)O)C[C@@H]2N(C)CC3)cc1OC` [Compound 47], at hSERT, the inhibition at 1 µM was 90% and the inhibition at 3 µM was 94%. Besides, on PDE-4A1A, the inhibition at 30 µM is 40% and the inhibition at 100 µM is 88%.

Regarding `COc1ccc([C@@]23C=C[C@@H](OC(=O)CCC(=O)O)C[C@@H]2N(C)CC3)cc1OC` [Compound 54], at hSERT, the inhibition at 1 µM was 78% and the inhibition at 3 µM was 98%. Moreover, at PDE-4A1A, the inhibition at 30 µM worked out at 98% and the inhibition at 100 µM came out at 101%.

Turning to `COc1ccc([C@@]23CC[C@@H](OC(=O)C(C)N)C[C@@H]2N(C)CC3)cc1OC` (stereo partly drawn) [Compound 49], on hSERT, the inhibition at 1 µM was determined as 95% and the inhibition at 3 µM stood at 97%. For the same compound, at PDE-4A1A, the inhibition at 30 µM was 87% and the inhibition at 100 µM is 86%.

With `CCC(=O)O[C@@H]1CC[C@@]2(c3ccc(OC)c(OC)c3)CCN(C)[C@H]2C1` [Compound 50], at hSERT, the inhibition at 1 µM is 98% and the inhibition at 3 µM was 98%. Further, at PDE-4A1A, the inhibition at 30 µM turned out to be 92% and the inhibition at 100 µM amounted to 101%.

Turning to `COc1ccc([C@@]23C=C[C@@H](OC(=O)CCCC(=O)O)C[C@@H]2N(C)CC3)cc1OC` [Compound 55], on hSERT, the inhibition at 1 µM came to 67% and the inhibition at 3 µM is 97%. At PDE-4A1A, the inhibition at 30 µM stood at 100% and the inhibition at 100 µM stood at 95%.

`COc1ccc([C@@]23CC[C@@H](OC(=O)c4ccccc4)C[C@@H]2N(C)CC3)cc1OC` [Compound 52]: on hSERT, the inhibition at 1 µM amounted to 91% and the inhibition at 3 µM stood at 91%. Moreover, at PDE-4A1A, the inhibition at 30 µM amounted to 97% and the inhibition at 100 µM was 99%.

In the case of `COc1ccc([C@@]23C=C[C@@H](OC(=O)c4ccc[nH]4)C[C@@H]2N(C)CC3)cc1OC` [Compound 61], on hSERT, the inhibition at 1 µM came to 101% and the inhibition at 3 µM turned out to be 106%. Further, on PDE-4A1A, the inhibition at 30 µM was determined as 94% and the inhibition at 100 µM came to 90%.

On to `COc1ccc([C@@]23CC[C@@H](OC(=O)CN)C[C@@H]2N(C)CC3)cc1OC` [Compound 48], for which, at hSERT, the inhibition at 1 µM turned out to be 93% and the inhibition at 3 µM was determined as 101%. At PDE-4A1A, the inhibition at 30 µM was -8% and the inhibition at 100 µM was found to be 48%.

In the case of `COc1ccc([C@@]23CC[C@@H](OC(=O)CCC(=O)O)C[C@@H]2N(C)CC3)cc1OC` [Compound 46], on hSERT, the inhibition at 1 µM was 81% and the inhibition at 3 µM worked out at 94%. Besides, at PDE-4A1A, the inhibition at 30 µM stood at 53% and the inhibition at 100 µM was found to be 79%.

Take `CCC(=O)O[C@@H]1C=C[C@@]2(c3ccc(OC)c(OC)c3)CCN(C)[C@H]2C1` [Compound 58]: at hSERT, the inhibition at 1 µM stood at 98% and the inhibition at 3 µM was 98%. In addition, on PDE-4A1A, the inhibition at 30 µM came to 103% and the inhibition at 100 µM amounted to 100%.

For `COc1ccc([C@@]23C=C[C@@H](OC(=O)C(C)N)C[C@@H]2N(C)CC3)cc1OC` (stereo partly drawn) [Compound 57], on hSERT, the inhibition at 1 µM is 86% and the inhibition at 3 µM came out at 97%. Also, at PDE-4A1A, the inhibition at 30 µM came to 101% and the inhibition at 100 µM amounted to 102%.

With `COc1ccc([C@@]23CC[C@@H](OC(=O)c4ccc[nH]4)C[C@@H]2N(C)CC3)cc1OC` [Compound 53], at hSERT, the inhibition at 1 µM was found to be 99% and the inhibition at 3 µM amounted to 98%. At PDE-4A1A, the inhibition at 30 µM turned out to be 94% and the inhibition at 100 µM was determined as 97%.
